Read-outs that look alike come from different tables or passages of the source.
Tested on: lymphocytic leukemia P388
Assay: Lymphocytic Leukemia P388 Test
Format: in vivo, BDF1 mice
Conditions: for Median Survival: BDF1 mice; for response vs control in vivo at 0.75 mg/kg / response vs control in vivo at 1.5 mg/kg / response vs control in vivo at 3 mg/kg: Mus musculus, P388, ip
Protocol: The animals used were BDF1 mice, all of one sex, weighing a minimum of 18 g and all within a 3 g weight range. There were 5 or 6 mice per test group. The tumor transplant was by intraperitoneal injection of 0.5 ml of dilute ascitic fluid containing 10^6 cells of lymphocytic leukemia P388. The test compounds were administered intraperitoneally on days 1, 5 and 9 (relative to tumor inocu-lation) at various doses. The animals were weighed and survivors recorded on a regular basis for 60 days. The median survival time and the ratio of survival time for treated (T)/control (C) animals were calculated.

[1] = dose 0.75 mg/kg intraperitoneally on days 1, 5 and 9
[2] = dose 0.75 mg/kg intraperitoneally on days 1, 5 and 9, ratio of survival time treated/control
[3] = dose 1.5 mg/kg intraperitoneally on days 1, 5 and 9
[4] = dose 1.5 mg/kg intraperitoneally on days 1, 5 and 9, ratio of survival time treated/control
[5] = dose 3 mg/kg intraperitoneally on days 1, 5 and 9
[6] = dose 3 mg/kg intraperitoneally on days 1, 5 and 9, ratio of survival time treated/control

| Compound | Median Survival [1] [days] | T/C × 100 (%) [2] [%] | Median Survival [3] [days] | T/C × 100 (%) [4] [%] | Median Survival [5] [days] | T/C × 100 (%) [6] [%] | response vs control in vivo at 0.75 mg/kg (read-out: T/C × 100 (%)) [%] | response vs control in vivo at 1.5 mg/kg (read-out: T/C × 100 (%)) [%] | response vs control in vivo at 3 mg/kg (read-out: T/C × 100 (%)) [%] | response vs control in vivo at 0.75 mg/kg (dose 0.75 mg/kg intraperitoneally on days 1, 5 and 9, ratio of survival time treated/control, read-out: T/C × 100 (%)) [%] | response vs control in vivo at 1.5 mg/kg (dose 1.5 mg/kg intraperitoneally on days 1, 5 and 9, ratio of survival time treated/control, read-out: T/C × 100 (%)) [%] | response vs control in vivo at 3 mg/kg (dose 3 mg/kg intraperitoneally on days 1, 5 and 9, ratio of survival time treated/control, read-out: T/C × 100 (%)) [%] | response vs control in vivo at 0.75 mg/kg (read-out: T/C × 100 (%), dose 0.75 mg/kg intraperitoneally on days 1, 5 and 9, ratio of survival time treated/control) [%] | response vs control in vivo at 1.5 mg/kg (read-out: T/C × 100 (%), dose 1.5 mg/kg intraperitoneally on days 1, 5 and 9, ratio of survival time treated/control) [%] | response vs control in vivo at 3 mg/kg (read-out: T/C × 100 (%), dose 3 mg/kg intraperitoneally on days 1, 5 and 9, ratio of survival time treated/control) [%] |
| --- | --- | --- | --- | --- | --- | --- | --- | --- | --- | --- | --- | --- | --- | --- | --- |
| O=C(O)C(F)(F)F.O=C(O)C(F)(F)F.O=C(O)CC[C@H](NC(=O)OCc1ccccc1)C(=O)NCCNc1ccc(NCCNC(=O)[C@H](CCC(=O)O)NC(=O)OCc2ccccc2)c2c1C(=O)c1c(O)ccc(O)c1C2=O (relative stereo) [Example 48, [S-(R*,R*)]-5,5'-[(9,10-Dihydro-5,8-dihydroxy-9,10-dioxo-1,4-anthracenediyl)bis(imino-2,1-ethanediylimino)]bis[5-oxo-4-[[(phenylmethoxy)carbonyl]amino]pentanoic acid, bis(trifluoroacetate)] | 14.0 | 117 | 15.0 | 125 | 16.5 | 138 | – | – | – | – | – | – | – | – | – |
| Br.Br.NCC(=O)N[C@@H](Cc1ccccc1)C(=O)NCCNc1ccc(NCCNC(=O)[C@H](Cc2ccccc2)NC(=O)CN)c2c1C(=O)c1c(O)ccc(O)c1C2=O (relative stereo) [Example 54, [S-(R*,R*)]-N,N'-[(9,10-Dihydro-5,8-dihydroxy-9,10-dioxo-1,4-anthracenediyl)bis(imino-2,1-ethanediyl)]bis[glycyl-L-phenylalaninamide]dihydrobromide] | 18.5 | 185 | 19.0 | 195 | 19.0 | 190 | – | – | – | – | – | – | – | – | – |
| C[C@H](N)C(=O)NCCNc1ccc(NCCNC(=O)[C@H](C)N)c2c1C(=O)c1c(O)ccc(O)c1C2=O.Cl.Cl (stereo in doubt) [Example 16, [S-(R*,R*)]-N,N'-[(9,10-Dihydro-5,8-dihydroxy-9,10-dioxo-1,4-anthracenediyl)bis(imino-2,1-ethanediyl)]bis-[2-aminopropanamide], dihydrochloride] | 25.5 | 232 | 52.5 | 477 | 42.5 | 386 | – | – | – | – | – | – | – | – | – |
| CC(C)C[C@H](N)C(=O)NCCNc1ccc(NCCNC(=O)[C@@H](N)CC(C)C)c2c1C(=O)c1c(O)ccc(O)c1C2=O.Cl.Cl (stereo in doubt) [Example 18, [S-(R*,R*)]-N,N'-[(9,10-Dihydro-5,8-dihydroxy-9,10-dioxo-1,4-anthracenediyl)bis(imino-2,1-ethanediyl)]bis-[-amino-4-methylpentanamide], dihydrochloride] | 25.5 | 213 | 26.0 | 217 | 18.0 | 150 | – | – | – | – | – | – | – | – | – |
| CC(C)C[C@@H](N)C(=O)NCCNc1ccc(NCCNC(=O)[C@H](N)CC(C)C)c2c1C(=O)c1c(O)ccc(O)c1C2=O.Cl.Cl (stereo in doubt) [Example 20, [(R*,R*)]-N,N'-[(9,10-Dihydro-5,8-dihydroxy-9,10-dioxo-1,4-anthracenediyl)bis(imino-2,1-ethanediyl)]bis-[2-amino-4-methylentanamide], dihydrochloride] | 20.5 | 171 | 22.5 | 188 | 23.5 | 196 | – | – | – | – | – | – | – | – | – |
| C[C@@H](N)C(=O)NCCNc1ccc(NCCNC(=O)[C@@H](C)N)c2c1C(=O)c1c(O)ccc(O)c1C2=O.Cl.Cl (stereo in doubt) [Example 25, [R-(R*,R*)]-N,N'-[(9,10-Dihydro-5,8-dihydroxy-9,10-dioxo-1,4-anthracenediyl)bis(imino-2,1-ethanediyl)]bis-[2-aminopropanamide], dihydrochloride] | 19.0 | 173 | 20.0 | 182 | 24.0 | 218 | – | – | – | – | – | – | – | – | – |
| Br.Br.CC(C)C[C@H](N)C(=O)NCCNc1ccc(NCCNC(=O)[C@@H](N)CC(C)C)c2c1C(=O)c1c(O)ccc(O)c1C2=O (stereo in doubt) [Example 31, [S-(R*,R*)]-N,N'-[(9,10-Dihydro-5,8-dihydroxy-9,10-dioxo-1,4-anthracenediyl)bis(imino-2,1-ethanediyl)]bis[2-amino-4-methylpentanamide], dihydrobromide] | 17.5 | 175 | 18.0 | 180 | 21.0 | 210 | – | – | – | – | – | – | – | – | – |
| C[C@H](NC(=O)OC(C)(C)C)C(=O)N[C@@H](C)C(=O)N(CCNc1ccc(NCCN(C(=O)[C@H](C)NC(=O)[C@H](C)NC(=O)OC(C)(C)C)[C@@H](C)C(=O)O)c2c1C(=O)c1c(O)ccc(O)c1C2=O)[C@@H](C)C(=O)O [Example 7., N,N'-[(9,10-Dihydro-5,8-dihydroxy-9,10-dioxo-1,4-anthracenediyl)bis(imino-2,1-ethanediyl)]bis[N-[(1,1-dimethylethoxy)carbonyl]-L-alanyl-L-alanyl-L-alanine]] | 18.5 | – | 18.0 | – | 19.0 | – | 176 | 171 | 181 | – | – | – | – | – | – |
| CC(C)CC(N)C(=O)N(CCO)CCNc1ccc(NCCN(CCO)C(=O)C(N)CC(C)C)c2c1C(=O)c1c(O)ccc(O)c1C2=O.Cl.Cl (stereo not drawn) [Example 28, N,N'-[(9,10-Dihydro-5,8-dihydroxy-9,10-dioxo-1,4-anthracenediyl)bis(imino-2,1-ethanediyl)]bis[2-amino-N-(2-hydroxyethyl)-4-methylpentanamide], dihydrochloride] | 12.0 | – | 14.0 | – | 17.0 | – | – | – | – | 109 | 127 | 155 | – | – | – |
| Br.Br.CC(C)C[C@H](N)C(=O)N[C@@H](C)C(=O)NCCNc1ccc(NCCNC(=O)[C@H](C)NC(=O)[C@@H](N)CC(C)C)c2c1C(=O)c1c(O)ccc(O)c1C2=O [Example 50, N,N'-[(9,10-Dihydro-5,8-dihydroxy-9,10-dioxo-1,4-anthracenediyl)bis(imino-2,1-ethanediyl)]bis[L-leucyl-L-alaninamide], dihydrobromide] | 17.0 | – | 20.0 | – | 20.0 | – | – | – | – | – | – | – | 170 | 200 | 200 |
| CC(C)C[C@H](NC(=O)OCc1ccccc1)C(=O)N[C@@H](C)C(=O)N[C@@H](CC(C)C)C(=O)NCCNc1ccc(NCCNC(=O)[C@H](CC(C)C)NC(=O)[C@H](C)NC(=O)[C@H](CC(C)C)NC(=O)OCc2ccccc2)c2c1C(=O)c1c(O)ccc(O)c1C2=O [Example 51] | 20.0 | 182 | 19.0 | 173 | 17.0 | 155 | – | – | – | – | – | – | – | – | – |
| Br.Br.CC(C)C[C@H](NC(=O)[C@H](C)NC(=O)[C@@H](N)CC(C)C)C(=O)NCCNc1ccc(NCCNC(=O)[C@H](CC(C)C)NC(=O)[C@H](C)NC(=O)[C@@H](N)CC(C)C)c2c1C(=O)c1c(O)ccc(O)c1C2=O [Example 52, N,N'-[(9,10-Dihydro-5,8-dihydroxy-9,10-dioxo-1,4-anthracenediyl)bis(imino-2,1-ethanediyl)]bis[L-leucyl-L-Alanyl-L-leucinamide]dihydrobromide] | 20.5 | 205 | 25.5 | 255 | 25.0 | 250 | – | – | – | – | – | – | – | – | – |
| O=C(CNC(=O)OCc1ccccc1)N[C@@H](Cc1ccccc1)C(=O)NCCNc1ccc(NCCNC(=O)[C@H](Cc2ccccc2)NC(=O)CNC(=O)OCc2ccccc2)c2c1C(=O)c1c(O)ccc(O)c1C2=O [Example 53] | 18.5 | 168 | 17.5 | 159 | 19.0 | 173 | – | – | – | – | – | – | – | – | – |
| C[C@H](NC(=O)OCc1ccccc1)C(=O)NCC(=O)NCCNc1ccc(NCCNC(=O)CNC(=O)[C@H](C)NC(=O)OCc2ccccc2)c2c1C(=O)c1c(O)ccc(O)c1C2=O [Example 55] | 12.5 | 114 | 13.0 | 118 | 19.0 | 173 | – | – | – | – | – | – | – | – | – |

Reference: patent publication US4732970A, “Antitumor amino acid and peptide derivatives of 1,4-bis(aminoalkyl and hydroxy-aminoalkyl)amino)-5,8-dihydroxyanthraquinones” (priority 1986, dated 1988)
